Source: the supplement of paper PMC10307832

How the values were obtained:
Assay in all cases: relative viability (nuclei count vs DMSO), 5 days (fraction); higher = more cells survive
[1] = compound: CCC1=CN=CN=C1N2CCN(CC2)CC3=NC4=C(N3)C=C(C=C4)C(F)(F)F + Cc1cc(Nc2cc(N3CCN(C)CC3)nc(Sc3ccc(NC(=O)C4CC4)cc3)n2)n[nH]1 [Tozasertib] (partner 0.1 µM)
Outline: (§1)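 After 5 days of treatment, lung cancer cells in 1536-well plates were fixed and stained in a single step (final 0.05% Triton X-100, 1% formaldehyde, 1 ug/ml Hoechst) and their nuclei counted on 4× images. Treatment had been applied by pin tool the day after seeding as one drug alone or as a fixed anchor-drug dose with five library-drug doses (not always all listed) in √10 steps. Relative viability is the nuclei count of treated wells divided by that of vehicle wells, and values are medians of duplicate plates.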

[2] = compound: CCn1c(-c2nonc2N)nc2cnc(Oc3cccc(NC(=O)c4ccc(OCCN5CCOCC5)cc4)c3)cc21 + COc1cccc2cc(-c3nc([C@H]4CC[C@H](C(=O)O)CC4)n4ncnc(N)c34)[nH]c12 [OSI-027] (partner 0.5 µM)
Outline: as §1

Mirin + Linsitinib = compound: N=C1NC(=O)/C(=C/c2ccc(O)cc2)S1 [Mirin] + C[C@]1(O)C[C@@H](c2nc(-c3ccc4ccc(-c5ccccc5)nc4c3)c3c(N)nccn32)C1 [Linsitinib] (partner 1 µM)
Outline: as §1

Mirin + Decitabine = compound: N=C1NC(=O)/C(=C/c2ccc(O)cc2)S1 [Mirin] + Nc1ncn([C@H]2C[C@H](O)[C@@H](CO)O2)c(=O)n1 [Decitabine] (partner 2 µM)
Outline: as §1

Cell Line | relative viability ([1]; first compound 0.04 µM) | relative viability ([1]; first compound 0.1265 µM) | relative viability ([1]; first compound 0.4 µM) | relative viability ([1]; first compound 1.265 µM) | relative viability ([1]; first compound 4 µM) | relative viability ([2]; first compound 0.04 µM) | relative viability ([2]; first compound 0.1265 µM) | relative viability ([2]; first compound 0.4 µM) | relative viability ([2]; first compound 1.265 µM) | relative viability ([2]; first compound 4 µM) | relative viability (Mirin + Linsitinib; first compound 0.25 µM) | relative viability (Mirin + Linsitinib; first compound 0.7906 µM) | relative viability (Mirin + Linsitinib; first compound 2.5 µM) | relative viability (Mirin + Linsitinib; first compound 7.906 µM) | relative viability (Mirin + Linsitinib; first compound 25 µM) | relative viability (Mirin + Decitabine; first compound 0.25 µM) | relative viability (Mirin + Decitabine; first compound 0.7906 µM) | relative viability (Mirin + Decitabine; first compound 2.5 µM) | relative viability (Mirin + Decitabine; first compound 7.906 µM) | relative viability (Mirin + Decitabine; first compound 25 µM)
NCI-H2023 | 0.33 | 0.383 | 0.343 | 0.297 | 0.325 | 0.497 | 0.47 | 0.261 | 0.299 | 0.269 | 0.709 | 0.674 | 0.653 | 0.684 | 0.522 | 0.237 | 0.238 | 0.216 | 0.228 | 0.225
LC-2-ad | 0.442 | 0.497 | 0.424 | 0.406 | 0.413 | 0.892 | 0.8 | 0.39 | 0.386 | 0.498 | 0.816 | 1.03 | 0.937 | 0.833 | 0.732 | 0.843 | 0.814 | 0.743 | 0.78 | 0.921
NCI-H1666 | 0.556 | 0.723 | 0.575 | 0.569 | 0.635 | 1.02 | 0.995 | 0.74 | 0.796 | 0.668 | 0.734 | 0.853 | 0.791 | 0.646 | 0.517 | 0.543 | 0.676 | 0.76 | 0.654 | 0.692
201T | 0.923 | 0.936 | 0.9 | 0.846 | 0.919 | 0.857 | 0.773 | 0.38 | 0.674 | 0.806 | 1 | 1.04 | 1.01 | 1.02 | 1.09 | 0.877 | 0.885 | 0.842 | 0.939 | 1
NCI-H2009 | 0.778 | 0.698 | 0.727 | 0.746 | 0.678 | 0.753 | 0.597 | 0.39 | 0.361 | 0.322 | 1.17 | 1.21 | 1.18 | 1.15 | 1.34 | 0.354 | 0.373 | 0.425 | 0.361 | 0.405
NCI-H1395 | 0.733 | 0.807 | 0.715 | 0.698 | 0.756 | 0.785 | 0.512 | 0.525 | 0.351 | 0.384 | 1.13 |  | 1.07 | 1.05 | 0.901 | 0.721 |  | 0.814 | 0.741 | 0.66
NCI-H23 | 0.341 | 0.361 | 0.346 | 0.305 | 0.361 | 0.614 | 0.768 | 0.249 | 0.534 | 0.525 | 0.618 |  | 0.573 | 0.612 | 0.543 | 0.298 |  | 0.292 | 0.295 | 0.284
LU99A | 0.268 | 0.281 | 0.282 | 0.278 | 0.297 | 0.298 | 0.254 | 0.227 | 0.259 | 0.225 | 0.515 | 0.472 | 0.508 | 0.46 | 0.421 | 0.877 | 0.785 | 0.94 | 0.892 | 0.736
NCI-H1437 | 0.419 | 0.364 | 0.366 | 0.367 | 0.294 | 0.946 | 0.742 | 0.553 | 0.74 | 0.662 | 1.09 | 1.01 | 1.07 | 0.784 | 0.33 | 0.571 | 0.559 | 0.606 | 0.647 | 0.555
EKVX | 0.477 | 0.367 | 0.346 |  | 0.445 | 0.839 | 0.77 | 0.613 | 0.65 | 0.545 | 1.11 | 0.959 | 1.03 | 0.933 | 1 | 0.317 | 0.338 | 0.395 | 0.361 | 0.26
ABC-1 | 0.176 | 0.172 | 0.172 | 0.152 | 0.196 | 0.492 | 0.751 | 0.272 | 0.418 | 0.3 | 0.771 | 0.93 | 0.773 | 1.04 | 0.455 | 1.09 | 0.898 | 1.16 | 0.883 | 0.715
NCI-H596 | 0.921 | 0.949 | 0.758 |  | 1.04 | 0.755 | 0.715 | 0.591 | 0.528 | 0.615 | 0.975 | 0.919 | 1.03 | 1.11 | 0.902 | 1.03 | 1.2 | 1 | 0.993 | 0.998
LCLC-97TM1 | 0.209 | 0.196 | 0.234 | 0.207 | 0.205 | 0.516 | 0.655 | 0.254 | 0.691 | 0.528 | 0.174 | 0.166 | 0.177 | 0.143 | 0.141 | 0.239 | 0.224 | 0.228 | 0.179 | 0.197
NCI-H1793 | 0.352 | 0.325 | 0.303 |  | 0.256 | 0.31 | 0.265 | 0.194 | 0.248 | 0.196 | 0.816 | 0.794 | 0.902 | 0.947 | 0.641 | 0.472 |  | 0.434 | 0.52 | 0.48
NCI-H322M | 0.485 | 0.446 | 0.485 | 0.469 | 0.488 | 0.826 | 0.667 | 0.416 | 0.562 | 0.611 | 0.891 | 1.08 | 0.976 | 1.04 | 0.651 | 0.674 | 0.712 | 0.725 | 0.705 | 0.614
PC-3 [JPC-3] | 0.883 | 0.814 | 0.844 | 0.886 | 0.776 | 0.838 | 0.802 | 0.701 | 0.773 | 0.656 | 1.01 | 1.03 | 0.988 | 1.07 | 1.03 | 0.818 | 0.825 | 0.825 | 0.76 | 0.836
EPLC-272H | 0.257 | 0.225 | 0.262 | 0.327 | 0.332 | 0.363 | 0.339 | 0.246 | 0.234 | 0.247 | 1.1 |  | 1.16 | 0.978 | 0.831 | 0.33 |  | 0.39 | 0.34 | 0.28
A-427 | 0.209 | 0.218 | 0.21 | 0.174 | 0.177 | 0.585 | 0.545 | 0.328 | 0.411 | 0.352 | 1.11 |  | 1.19 | 1.19 | 1.2 | 0.554 | 0.479 | 0.546 | 0.521 | 0.514
